According to patent US20200038514A1, “FOLATE CONJUGATE FOR USE IN TARGETING TUMOR ASSOCIATED MACROPHAGES” (ENDOCYTE, INC., priority 2016, published 2020):

Tests used:
[1] = tested on: 4T1-C12 tumor (FRα-positive); assay: Single-agent activity in vivo, 4T1-C12 mammary tumors; design: species or system mice; conditions: 0.2 μmol/kg i.v., BIW×4 doses
From the text: (§1) Female Balb/c mice (4T1p, 4T1-C12) were purchased from Envigo (Indianapolis, Ind.) and used when they reached 6-8 weeks of age. The mice were fed a folate-deficient diet (TestDiet, St. Louis, Mo.) on the day of arrival.
(§2) Solid tumors in Balb/c mice were generated by subcutaneous implantation of cultured cells at 5×10^5 (4T1p) and 2×10^6 (4T1-C12) per animal in the mammary region.
(§3) Starting on day 0, mice with mammary 4T1p (˜78.3±12.1 mm^3) and 4T1-C12 (˜70.1±14.1 mm^3) were scheduled to receive Conjugate 5 at 200 nmol/kg, biweekly for two weeks. 4T1p tumor bearing mice received a total of 3 doses only and 4T1-C12 tumor bearing mice received a total of 4 doses as planned. Mice were weighed and measured for tumor size 3 times a week. The tumor volumes were calculated by the following formula: V=0.5×a×b^2, where a is the longest axis across the tumor, and b is the shorter axis perpendicular to a. The animals were euthanized when the tumor volume reached ˜1500 mm^3. Mice were also monitored closely for the evidence of toxicity such as respiratory distress, mobility, weight loss, diarrhea, hunched posture, and failure to eat. The last Conjugate 5 dose in the 4T1p tumor-bearing mice was skipped due to weight loss.

folate receptor = target: T1, folate receptor (Homo sapiens, UniProt P15328); assay: Relative affinity assay ([3H]FA displacement on KB cells); assay type: binding
T1 construct: FR-positive KB cells were seeded in 24-well Falcon plates and allowed to form adherent monolayers; endogenous in cells; host or cells: KB cells
T1 sequence (P15328 25-234): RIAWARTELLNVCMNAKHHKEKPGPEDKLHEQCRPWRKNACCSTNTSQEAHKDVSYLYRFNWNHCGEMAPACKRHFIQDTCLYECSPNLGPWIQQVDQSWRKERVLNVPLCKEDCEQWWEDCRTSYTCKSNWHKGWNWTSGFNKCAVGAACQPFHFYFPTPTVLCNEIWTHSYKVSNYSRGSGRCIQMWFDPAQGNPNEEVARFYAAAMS
Method: FR-positive KB cells were seeded in 24-well Falcon plates and allowed to form adherent monolayers (>90% confluent) overnight in FFRPMI/HIFCS. Spent incubation medium was replaced with FFRPMI supplemented with 10% HIFCS and containing 100 nmol/L of [^3H]FA in the absence and presence of increasing concentrations of unlabeled FA or the test conjugate. Cells were incubated for 1 hour at 37° C. and then rinsed thrice with 0.5 mL PBS. Five hundred microliters of 1% SDS in PBS were added to each well; after 5 min, cell lysates were collected, transferred to individual vials containing 5 mL of scintillation cocktail, and then counted for radioactivity.
Cells exposed to only the [^3H]FA in FFRPMI (no competitor) were designated as negative controls, whereas cells exposed to the [^3H]FA plus 1 mmol/L unlabeled FA served as positive controls. Disintegrations per minute (DPM) measured in the latter samples (representing nonspecific binding of label) were subtracted from the DPM values from all samples.

IGROV1 cells = assay: Clonogenic assay, IGROV1; assay type: cell-based, human; conditions: 2 hour exposure, 9-day chase
Method: IGROV1 cells seeded in 6-well plates (1000 cells/well) were exposed for 2 hours to Conjugate 5 at 1, 10, and 100 nM and followed by a 9-day chase in drug-free medium. Afterwards, the cells were washed with PBS and fixed for 5 minutes in a 3:1 methanol:acetic acid solution. The cells were then stained with 0.5% crystal violet/methanol solution for 15 minutes and washed with tap water. After a drying step, the colonies were photographed and counted using the ImageJ software.
Afterwards, the cells were washed with PBS and fixed for 5 minutes in a 3:1 methanol:acetic acid solution. The cells were then stained with 0.5% crystal violet/methanol solution for 15 minutes and washed with tap water. After a drying step, the colonies were photographed and counted using the ImageJ software.

[2] = tested on: intraperitoneal ID8-C115 tumor; assay: Conjugate 5 plus anti-CTLA-4 combination study, survival; assay type: in vivo, mice; conditions: Conjugate 5 i.v. 0.1 μmol/kg BIW×6 doses; EC1456 i.v. 2 μmol/kg BIW×6 doses, from day 7; anti-CTLA-4 i.p. 250 μg/dose BIW×5 doses from day 11; untreated ~46 days; 5 animals
Method: To test the effect of Conjugate 5 alone and in combination with anti-CTLA-4 antibody, ID8-C115 tumor cells (5×10^6 cells per animal in 1% syngeneic mouse serum/folate-deficient RPMI1640 medium) were inoculated intraperitoneally 13 days post the date of arrival and start of the folate deficient diet. […] The anti-CTLA-4 antibody dosing solution was prepared by diluting the stock solution (BioXcell, Clone UC10-4F10-11) to 1.25 mg/mL in PBS, pH 7.4. Anti-CTLA-4 (250 μg/dose) was i.p. administered BIW for a total of 5 doses starting 11 days after the tumor implant. […] Mice were weighed 3 times/week and assessed for any clinical sign of swollen bellies indicative of ascites formation and for the evidence of toxicity such as respiratory distress, mobility, weight loss, diarrhea, hunched posture, and failure to eat. Once the animals developed ascites, they were monitored daily and euthanized when ascites became severe (rounded and walking on tip toes). Healthy animals from the same cohort of mice were used as controls for normal weight gain.

4T1-C12 tumor cells = assay: XTT cell viability assay, 4T1-C12; assay type: cell-based, mouse; conditions: FRα-positive 4T1-C12, 2 hours exposure, 96 hour chase
Method: The FRα− and FRα+ expressing cell lines utilized to evaluate Conjugate 5 activity in-vitro and/or ex-vivo studies were (1) 4T1p, a mouse breast cancer cell line that resembles triple negative breast cancer in humans, (2) 4T1-C12, 4T1p stably transfected with a mouse FRa, and (3) IGROV1, a human ovarian carcinoma cell line that expresses the human FRα. 4T1p and 4T1-C12 cells were grown respectively in a folate-replete or folate-free RPMI1640 medium (Gibco BRL) (FFRPMI) containing 10% heat-inactivated fetal calf serum (HIFCS) and antibiotics, and maintained under a 5% CO2 atmosphere using standard cell culture techniques. IGROV1 cells were grown in the same medium as 4T1-C12.
4T1p and 4T1-C12 tumor cells in 96-well plates (20,000 cells/well) were treated with 10-fold serial dilutions of Conjugate 5 (100 nM) in FFRPMI medium. After a 2 hour exposure, the drug-containing media were replaced and the cells were washed and allowed to incubate further for 96 hours. The cell viability was assessed by adding XTT (2,3-bis(2-methoxy-4-nitro-5-sulfo-phenyl)-2H-tetrazolium-5-carboxanilide) to the culture medium for 2 hours following the manufacturer's instructions. All results were expressed as % absorbance (minus background) relative to the untreated control cells.

[3] = tested on: 4T1p tumor (FRα-negative); assay: Single-agent activity in vivo, 4T1p mammary tumors; design: species or system mice; conditions: 0.2 μmol/kg i.v., BIW×3 doses
From the text: as §1, §2, §3

4T1 TAMs = assay: Activity against 4T1 TAMs in vivo (FACS of tumors); design: species or system rats
From the text: Female Foxn1^nu nude rats (Harlan, Inc., Indianapolis, Ind.) on a folate-deficient diet were subcutaneously implanted with 1×10^6 4 T1 tumor cells in the mammary region. When the tumors reached ˜1088 mm^3, the animals (n=3) were intravenously dosed with nothing (Control), 254 nmol/kg of Conjugate 5, 254 nmol/kg of Conjugate 5 plus 127 μmol/kg of EC0923, or 127 μmol/kg of EC0923. Four days later, the entire tumors were harvested, enzymatically digested, and subjected to FACS analysis. The tumor cell suspensions were stained for macrophage markers (CD163, CD11b), cell viability (propidium iodide), and late and early apoptosis (Annexin V).

[4] = tested on: KB-CR2000 (platin resistant) tumor; assay: In vivo activity against platinum resistant tumors; design: species or system mice; conditions: Conjugate 5 0.5 μmol/kg SIW two weeks; EC1456 2.0 μmol/kg BIW two weeks; n=4
Method: Mice were maintained and tumor volumes were measures according to Method 3.
KB-CR2000 (platin resistant) tumor cells were inoculated subcutaneously at the right flank of each mouse. Mice were dosed through the lateral tail vein under sterile conditions in a volume of […] of phosphate-buffered saline (PBS).

## C=C1C[C@H]2C=Nc3cc(OCCCCCOc4cc(N)c(C(=O)N5CC(=C)C[C@H]5C5OCCN5C(=O)OCC(C)(C)SSCCC(=O)NCCNC(=O)CCOCCOCCOCCOCCNC(=O)CCN5C(=O)CC(SC[C@H](NC(=O)[C@H](CC(=O)O)NC(=O)[C@H](CC(=O)O)NC(=O)[C@H](CCCNC(=N)N)NC(=O)[C@H](CC(=O)O)NC(=O)CC[C@H](NC(=O)c6ccc(NCc7cnc8nc(N)[nH]c(=O)c8n7)cc6)C(=O)O)C(=O)O)C5=O)cc4OC)c(OC)cc3C(=O)N2C1 (stereo partly drawn) [Conjugate 5]
[1]
  body weight: significant weight loss
Folate receptor
  relative binding affinity toward the folate receptor, fold lower than that of folic acid: ~1.9 fold
IGROV1 cells; 1, 10, 100 nM
  clonogenic activity: potent activity at all concentrations
IGROV1 cells; 1, 10, 100, 1000 nM
  clonogenic activity, comparison Conjugate 5 and EC1456: potent activity at all concentrations tested
IGROV1 cells; 1 and 10 nM, excess folic acid
  clonogenic anti-tumor activity in the presence of excess folic acid: significantly reduced
[2]
  median survival time: ~77 days post tumor implant
4T1-C12 tumor cells; excess folic acid
  activity in the presence of excess folic acid: partially reversible
4T1-C12 tumor cells; read-out: relative IC50, inhibition of cell proliferation
  IC50: ~8.7 nM
[3]
  body weight: significant weight loss
  complete responders: no complete responders
  tumor sensitivity / tumor growth: partial sensitivity
4T1 TAMs; 254 nmol/kg Conjugate 5 plus 127 μmol/kg EC0923, single i.v. dose
  anti-TAM activity in presence of 500-fold excess of EC0923: not blocked
4T1 TAMs; 254 nmol/kg, single i.v. dose
  effect against FR− cell populations including CD163-CD11b+ 4T1 TAMs and 4T1 tumor cells: no effect
4T1 TAMs; single i.v. administration, Conjugate 5 254 nmol/kg, EC0923 127 μmol/kg, tumors harvested four days later, n=3
  effect on CD163+CD11b+ TAM population in 4T1 tumors: significantly decrease
[4]
  cure (number of mice): 4
